The target in test [1] is T1, Alpha-1A adrenergic receptor (Rattus norvegicus) (UniProt P43140).
T1 sequence (whole entry): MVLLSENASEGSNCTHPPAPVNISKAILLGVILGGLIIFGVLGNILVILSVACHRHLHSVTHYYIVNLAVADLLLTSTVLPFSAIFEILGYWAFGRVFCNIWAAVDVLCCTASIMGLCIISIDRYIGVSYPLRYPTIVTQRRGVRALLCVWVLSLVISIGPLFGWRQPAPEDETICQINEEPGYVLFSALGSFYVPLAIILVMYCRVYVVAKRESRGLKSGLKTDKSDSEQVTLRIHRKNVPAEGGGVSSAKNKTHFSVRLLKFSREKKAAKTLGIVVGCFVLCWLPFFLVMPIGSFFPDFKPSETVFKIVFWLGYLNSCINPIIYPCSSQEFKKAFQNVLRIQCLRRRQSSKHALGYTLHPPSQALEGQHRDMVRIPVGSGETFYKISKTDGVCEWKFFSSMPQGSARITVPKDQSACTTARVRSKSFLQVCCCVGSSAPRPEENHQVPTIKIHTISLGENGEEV
Kind of test: Antagonist activity at alpha1A adrenoceptor in Wistar rat prostatic vas deferens assessed as inhibition of (-)-noradrenalilne-induced contraction after 30 mins. In kind it is functional, tissue-based.

For test [2], the target named is T2, 5-hydroxytryptamine receptor 1A (Homo sapiens) (UniProt P08908).
T2 sequence (whole entry): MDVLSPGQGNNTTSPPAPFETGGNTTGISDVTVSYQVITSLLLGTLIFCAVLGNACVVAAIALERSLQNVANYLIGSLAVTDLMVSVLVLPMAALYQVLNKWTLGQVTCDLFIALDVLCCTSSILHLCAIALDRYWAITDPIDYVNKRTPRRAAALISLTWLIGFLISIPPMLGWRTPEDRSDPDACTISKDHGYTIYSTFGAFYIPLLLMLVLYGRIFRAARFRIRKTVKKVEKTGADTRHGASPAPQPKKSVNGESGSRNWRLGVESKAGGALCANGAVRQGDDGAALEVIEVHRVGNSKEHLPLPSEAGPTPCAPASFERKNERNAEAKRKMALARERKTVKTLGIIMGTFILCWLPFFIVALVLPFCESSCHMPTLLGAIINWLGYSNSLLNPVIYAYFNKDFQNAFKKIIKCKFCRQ
Kind of test: Agonist activity at human recombinant 5HT1A receptor expressed in HeLa cells preincubated for 20 mins by [35S]GTPgammaS binding assay relative to 8-OH-DPAT. In kind it is functional, cell-based.

For test [3], the target named is T2, 5-hydroxytryptamine receptor 1A (Homo sapiens). As to conditions: HeLa.
For test [4], the target named is T3, Alpha-1A adrenergic receptor (Homo sapiens, UniProt P35348).
T3 sequence (P35348 whole entry): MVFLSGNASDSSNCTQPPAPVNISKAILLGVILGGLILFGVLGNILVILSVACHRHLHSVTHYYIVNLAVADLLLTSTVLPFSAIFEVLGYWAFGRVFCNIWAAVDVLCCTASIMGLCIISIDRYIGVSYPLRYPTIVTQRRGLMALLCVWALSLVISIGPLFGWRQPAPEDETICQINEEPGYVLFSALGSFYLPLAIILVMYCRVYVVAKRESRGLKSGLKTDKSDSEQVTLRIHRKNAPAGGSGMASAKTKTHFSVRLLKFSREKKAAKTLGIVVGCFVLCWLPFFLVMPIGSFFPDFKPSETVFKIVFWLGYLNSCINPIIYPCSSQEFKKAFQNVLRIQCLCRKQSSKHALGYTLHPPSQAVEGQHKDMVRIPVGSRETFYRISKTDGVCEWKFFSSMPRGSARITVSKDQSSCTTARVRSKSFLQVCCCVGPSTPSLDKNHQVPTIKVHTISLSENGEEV
Kind of test: biochemical.
Description: Displacement of [3H]prazosin from human recombinant alpha1A adrenoceptor expressed in CHO cells after 30 mins by liquid scintillation counting

As for `O[C@@H]1[C@@H](CNCCOc2ccccc2)CCC1(c1ccccc1)c1ccccc1` (relative stereo), the negative-log Kb (pKb) in test [1] amounted to 5.43. For the same compound, the Emax in test [2] stood at 64.9%. Also, the pD2 in test [3] amounted to 7.94. Besides, in test [4], the inhibition constant (Ki) is over 1000 nM.
In the same order, the values of `COc1ccccc1OCCNCC1CCC(c2ccccc2)(c2ccccc2)O1` (stereo unspecified) are 7.24, 53.4%, 9.04 and 26.9 nM.
As to `O=C1C(CNCCOc2ccccc2)CCC1(c1ccccc1)c1ccccc1` (stereo unspecified), in test [1], the negative logarithm of the Kb (pKb) was under 5. For the same compound, the maximal effect (Emax) in test [2] was 25.5%. The same compound had a pD2 in test [3] of 7.44. Further, the Ki in test [4] is over 1000 nM.
`COc1ccccc1OCCNC[C@H]1CCC(c2ccccc2)(c2ccccc2)[C@@H]1O` (relative stereo): the negative-log Kb (pKb) in test [1] is 6.57. Also, in test [2], the maximal response (Emax) was 64.1%. Further, in test [3], the pD2 stood at 8.96. In test [4], this compound had an inhibition constant Ki of 110 nM.
In the case of `COc1ccccc1N1CCN(C[C@H]2CCC(c3ccccc3)(c3ccccc3)[C@@H]2O)CC1`, the pKb in test [1] turned out to be 6.39. Also, in test [2], the Emax came to 37.3%. In test [3], the pD2 turned out to be 8.74. Moreover, the Ki in test [4] was 44.7 nM.
For `COc1ccccc1N1CCN(CC2COC(c3ccccc3)(c3ccccc3)O2)CC1` (stereo unspecified) the same measures were 8.24, 16.2%, 8.3 and 0.263 nM.
Take `COc1ccccc1OCCNCC1CCC(c2ccccc2)(c2ccccc2)C1=O` (stereo unspecified): the pKb in test [1] was found to be 6.39. Besides, in test [2], the Emax was 39.4%. In test [3], the pD2 is 8.37. In test [4], this compound had a Ki of over 1000 nM.
As to `COc1ccccc1N1CCN(C[C@H]2CCC(c3ccccc3)(c3ccccc3)[C@H]2O)CC1` (relative stereo), in test [1], the pKb came out at 5.62. The maximal effect (Emax) in test [2] amounted to 47.1%. In test [3], the pD2 worked out at 9.03. In test [4], this compound had an inhibitory constant (Ki) of 38.9 nM.
On to `O[C@@H]1[C@H](CNCCOc2ccccc2)CCC1(c1ccccc1)c1ccccc1` (relative stereo), for which the negative-log Kb (pKb) in test [1] came to 5.23. Besides, the maximal effect (Emax) in test [2] worked out at 46.5%. Further, the pD2 in test [3] came to 7.81. In test [4], this compound gave a Ki of over 1000 nM.

Source of the values: ChEMBL document CHEMBL1944594, “Synthesis, biological evaluation, and docking studies of tetrahydrofuran- cyclopentanone- and cyclopentanol-based ligands acting at adrenergic α₁- and serotonine 5-HT1A receptors” (J Med Chem, 2012).
